EC50, DC50 and Emax data for six compounds are collected here from patent US20250325677A1, “STAT6 DEGRADERS” (Gilead Sciences, Inc., priority 2024, published 2025).

pEC50: −log10 of the molar value.

Test [1] relates to eotaxin-3 release. The test can be described thus: Human whole blood eotaxin-3 assay (IL-4 stimulated). Format: cell-based. The following applies: human whole blood, IL-4 0.4 nM, 48 hours; geometric mean; given for compounds with >80% Emax; read-out: Eotaxin-3 EC50. The method, then: Human Whole Blood Eotaxin-3 Assay
This was a human whole blood assay using recombinant human Interleukin 4 to stimulate the blood and measuring the ability of the test compounds to inhibit eotaxin-3 release. Compounds or media were added to the wells and incubated together with human whole blood for 120 minutes at 37° C. Subsequently, recombinant IL-4 was added at a final concentration of 0.4 nM. The plates were incubated for 48 hours.
Test compounds which inhibited eotaxin-3 release upon stimulation with human IL-4 (E. coli) interfered with the signaling in human whole blood are expected to have activity in human beings. […] The EC50 value indicates at which concentration test compounds were active and in inhibiting the eotaxin-3 release. As eotaxin-3 release is down-stream of STAT6 signaling both STAT6 inhibitors and STAT6 degraders are active in this assay.
The data from the human whole blood eotaxin-3 assay is shown below for Examples 3e27, 3e50, 3e17, and 3e51 (where the effect in % is plotted against the test concentration in M on a log-scale).

The target in test [2] is STAT6 (Homo sapiens (Human), UniProt P42226). The test can be described thus: STAT6 degrader assay (HiBiT, HeLa LgBiT clone 4.14). The following applies: HeLa LgBiT clone 4.14, 4-24 h; for DC50: geometric mean, given for compounds with >80% Emax, read-out: STAT6 degradation DC50. Format: cell-based. The method, boiled down:
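HeLa LgBiT clone 4.14 cells with HiBiT knocked into endogenous STAT6 were treated with compound for 4-24 h at 37° C. Luminescence after Nano-GLO substrate (0.5 h) measured remaining STAT6; 50 μM terfenadine wells defined 100% degradation, and DC50 (nM) was derived.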
A general note: The HiBiT peptide binds its large partner to form an active luciferase.

Chain of STAT6 (P42226 whole entry): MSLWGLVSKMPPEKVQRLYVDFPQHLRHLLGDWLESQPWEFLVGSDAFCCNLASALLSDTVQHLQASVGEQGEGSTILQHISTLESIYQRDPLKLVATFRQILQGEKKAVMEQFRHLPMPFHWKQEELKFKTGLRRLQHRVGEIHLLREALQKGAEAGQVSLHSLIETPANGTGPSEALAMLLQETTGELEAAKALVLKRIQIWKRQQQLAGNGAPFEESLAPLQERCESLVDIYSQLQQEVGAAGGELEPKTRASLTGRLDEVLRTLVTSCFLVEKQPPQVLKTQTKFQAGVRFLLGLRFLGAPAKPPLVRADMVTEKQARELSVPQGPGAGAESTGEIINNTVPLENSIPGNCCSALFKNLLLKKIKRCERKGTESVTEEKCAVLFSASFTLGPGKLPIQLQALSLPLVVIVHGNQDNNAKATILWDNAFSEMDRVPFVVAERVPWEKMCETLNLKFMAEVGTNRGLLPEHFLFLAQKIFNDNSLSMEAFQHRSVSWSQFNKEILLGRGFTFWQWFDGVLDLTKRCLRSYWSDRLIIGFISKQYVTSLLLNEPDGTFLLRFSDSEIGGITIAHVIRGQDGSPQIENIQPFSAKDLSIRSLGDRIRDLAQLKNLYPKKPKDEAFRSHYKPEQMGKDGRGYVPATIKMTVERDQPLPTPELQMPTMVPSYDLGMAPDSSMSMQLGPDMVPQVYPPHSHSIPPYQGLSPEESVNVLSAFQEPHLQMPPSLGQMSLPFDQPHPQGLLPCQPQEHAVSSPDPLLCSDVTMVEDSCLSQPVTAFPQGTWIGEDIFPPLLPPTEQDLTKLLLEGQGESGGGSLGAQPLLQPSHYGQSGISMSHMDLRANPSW

For the compound `CNc1ccc(-c2ccnc3c2cc([C@H](C)N2CC=C(c4c(C)cc(C(=O)N5CCC(CN6CCN(Cc7cc8c(cc7F)N(C7CCC(=O)NC7=O)C(=O)C87CC7)CC6)CC5)cc4F)CC2)n3C)cn1` (stereo partly drawn) [Example 3h34, 3-(6′-fluoro-5′-((4-((1-(3-fluoro-5-methyl-4-(1-((S)-1-(1-methyl-4-(6-(methylamino)pyridin-3-yl)-1H-pyrrolo[2,3-b]pyridin-2-yl)ethyl)-1,2,3,6-tetrahydropyridin-4-yl)benzoyl)piperidin-4-yl)methyl)piperazin-1-yl)methyl)-2′-oxospiro[cyclopropane-1,3′-indolin]-1′-yl)piperidine-2,6-dione], the negative-log EC50 (pEC50) in test [1] was 8.07. In test [2], the DC50 was 5.5 nM.

As to `C[C@H]1CN(Cc2ccc3c(c2)n(C2CC2)c(=O)n3[C@H]2CCC(=O)NC2=O)CCN1CC1CCN(C(=O)c2ccc(C3CCN([C@@H](C)c4cc5c(-c6ccc(N)nc6)ccnc5n4C)CC3)cc2)CC1` (single isomer, unassigned) [Example 3e50], the negative logarithm of the EC50 (pEC50) in test [1] is 8.64. Further, the half-maximal degradation concentration (DC50) in test [2] was found to be 1 nM.

With `Cn1c(CN2CCC(c3ccc(C(=O)N4CCC(CN5CCN(Cc6cc7c(cc6F)n(C6CCC(=O)NC6=O)c(=O)n7C)CC5)CC4)cc3)CC2)cc2c(-c3ccc(N)nc3)ccnc21` (stereo not drawn) [Example 3e15, 3-(5-((4-((1-(4-(1-((4-(6-aminopyridin-3-yl)-1-methyl-1H-pyrrolo[2,3-b]pyridin-2-yl)methyl)piperidin-4-yl)benzoyl)piperidin-4-yl)methyl)piperazin-1-yl)methyl)-6-fluoro-3-methyl-2-oxo-2,3-dihydro-1H-benzo[d]imidazol-1-yl)piperidine-2,6-dione], in test [1], the pEC50 is 6.87. Besides, the maximal response (Emax) in test [2] (read-out: STAT6 degradation Emax (%)) lay in the range of 70 to 80%.

Regarding `C[C@@H](c1cc2c(-c3ccc(N)nc3)ccnc2n1C)N1CCC(c2ccc(C(=O)N3CCC(CC4CCN(c5ccc6c(c5)C5(CC5)C(=O)N6C5CCC(=O)NC5=O)CC4)CC3)cc2)CC1` (stereo partly drawn) [Example 3h13, 3-(5′-(4-((1-(4-(1-((S)-1-(4-(6-aminopyridin-3-yl)-1-methyl-1H-pyrrolo[2,3-b]pyridin-2-yl)ethyl)piperidin-4-yl)benzoyl)piperidin-4-yl)methyl)piperidin-1-yl)-2′-oxospiro[cyclopropane-1,3′-indolin]-1′-yl)piperidine-2,6-dione], the pEC50 in test [1] is 7.63. Further, in test [2], the DC50 is 48.7 nM.

As to `C[C@@H](c1cc2c(-c3ccc(N)nc3)ccnc2n1C)N1CCC(c2ccc(C(=O)N3CCC(CN4CCN(Cc5ccc6c(c5)oc(=O)n6C5CCC(=O)NC5=O)CC4)CC3)cc2)CC1` (stereo partly drawn) [Example 3n5, 3-(6-((4-((1-(4-(1-((S)-1-(4-(6-aminopyridin-3-yl)-1-methyl-1H-pyrrolo[2,3-b]pyridin-2-yl)ethyl)-piperidin-4-yl)benzoyl)piperidin-4-yl)methyl)piperazin-1-yl)methyl)-2-oxobenzo[d]oxazol-3 (2H)-yl)piperidine-2,6-dione], in test [1], the pEC50 was 8.22. In test [2], the 50% degradation concentration (DC50) is 2.7 nM.

On to `COCc1nc2cc(-c3ccnc4c3cc([C@H](C)N3CCC(c5ccc(C(=O)N6CCC(CN7CCN(Cc8ccc9c(c8)n(C8CC8)c(=O)n9C8CCC(=O)NC8=O)C[C@@H]7C)CC6)cc5)CC3)n4C)ccc2[nH]1` (stereo partly drawn) [Example 3e27, 3-(3-cyclo-propyl-5-(((S)-4-((1-(4-(1-((S)-1-(4-(2-(methoxymethyl)-1H-benzo[d]imidazol-5-yl)-1-methyl-1H-pyrrolo[2,3-b]pyridin-2-yl)ethyl)piperidin-4-yl)benzoyl)piperidin-4-yl)methyl)-3-methylpiperazin-1-yl)methyl)-2-oxo-2,3-dihydro-1H-benzo[d]imidazol-1-yl)piperidine-2,6-dione], for which, in test [1], the pEC50 is 8.57. For the same compound, the 50% degradation concentration (DC50) in test [2] turned out to be 0.4 nM.

By pEC50 is commonly meant −log10 of the EC50, conventionally taken in molar units. As a reminder, the DC50 is the concentration at which degradation of the target reaches its halfway point. The term Emax denotes the maximal effect, on the per cent scale that the assay sets.
